Consider 9 molecules from patent publication US8410095B2, “Thiazolopyrimidinone derivatives as PI3 kinase inhibitors” (GlaxoSmithKline LLC, priority 2009, dated 2013).

Molecules are shown by their SMILES.

T1 sequence (P42338 whole entry): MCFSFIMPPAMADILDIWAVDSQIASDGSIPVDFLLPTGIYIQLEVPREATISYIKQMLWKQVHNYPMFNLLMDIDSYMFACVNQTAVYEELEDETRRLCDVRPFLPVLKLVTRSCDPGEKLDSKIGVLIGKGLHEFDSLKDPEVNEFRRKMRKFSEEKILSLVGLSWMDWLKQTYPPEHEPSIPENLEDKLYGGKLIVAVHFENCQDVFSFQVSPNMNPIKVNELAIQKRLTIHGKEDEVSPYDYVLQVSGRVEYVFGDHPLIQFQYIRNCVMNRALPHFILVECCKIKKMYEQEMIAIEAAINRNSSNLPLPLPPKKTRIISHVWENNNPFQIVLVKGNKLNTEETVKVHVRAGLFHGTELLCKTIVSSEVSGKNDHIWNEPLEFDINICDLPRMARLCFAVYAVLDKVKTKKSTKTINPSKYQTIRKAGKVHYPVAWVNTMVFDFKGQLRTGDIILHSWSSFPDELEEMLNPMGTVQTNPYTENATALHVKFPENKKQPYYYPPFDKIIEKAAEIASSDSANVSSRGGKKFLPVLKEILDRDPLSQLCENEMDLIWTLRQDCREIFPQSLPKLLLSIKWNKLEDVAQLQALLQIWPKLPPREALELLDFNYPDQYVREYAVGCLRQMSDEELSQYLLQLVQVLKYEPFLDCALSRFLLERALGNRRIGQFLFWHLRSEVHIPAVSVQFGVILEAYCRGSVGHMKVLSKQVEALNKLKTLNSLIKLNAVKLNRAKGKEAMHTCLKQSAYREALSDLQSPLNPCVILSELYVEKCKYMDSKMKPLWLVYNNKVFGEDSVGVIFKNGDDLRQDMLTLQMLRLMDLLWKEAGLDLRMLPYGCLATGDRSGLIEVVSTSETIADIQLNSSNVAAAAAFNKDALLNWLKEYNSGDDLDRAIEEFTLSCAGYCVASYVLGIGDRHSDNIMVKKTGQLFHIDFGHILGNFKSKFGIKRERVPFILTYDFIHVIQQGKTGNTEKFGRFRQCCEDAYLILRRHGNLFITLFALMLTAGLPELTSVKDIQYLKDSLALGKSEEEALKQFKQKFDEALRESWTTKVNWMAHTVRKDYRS
T1 sequence (P27986 whole entry partner): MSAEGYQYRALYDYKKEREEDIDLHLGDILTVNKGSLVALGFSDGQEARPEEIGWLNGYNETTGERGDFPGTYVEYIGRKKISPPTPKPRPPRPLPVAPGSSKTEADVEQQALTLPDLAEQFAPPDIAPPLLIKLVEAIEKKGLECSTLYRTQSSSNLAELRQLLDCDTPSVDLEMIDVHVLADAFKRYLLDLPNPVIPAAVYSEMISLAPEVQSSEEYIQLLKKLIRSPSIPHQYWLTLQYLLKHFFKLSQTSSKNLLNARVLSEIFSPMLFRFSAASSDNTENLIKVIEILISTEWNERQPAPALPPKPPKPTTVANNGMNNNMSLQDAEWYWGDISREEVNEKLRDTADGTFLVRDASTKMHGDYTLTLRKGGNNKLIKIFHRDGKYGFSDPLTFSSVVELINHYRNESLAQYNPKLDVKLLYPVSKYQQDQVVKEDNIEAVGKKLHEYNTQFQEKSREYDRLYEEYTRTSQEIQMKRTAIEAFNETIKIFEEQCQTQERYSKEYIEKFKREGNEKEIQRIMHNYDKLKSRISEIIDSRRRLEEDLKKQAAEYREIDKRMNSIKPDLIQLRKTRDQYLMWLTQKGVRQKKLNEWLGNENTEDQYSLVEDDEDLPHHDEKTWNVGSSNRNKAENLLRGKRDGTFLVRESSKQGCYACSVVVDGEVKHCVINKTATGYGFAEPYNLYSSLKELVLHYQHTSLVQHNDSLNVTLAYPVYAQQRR

One assay concerns the target T1, PI3Kβ (Homo sapiens, UniProt P42338).
T1 construct: made in house
Kind of assay: HTRF in vitro profiling assay for PI3K inhibition, beta isoform. To be noted: in at least one experimental run; read-out: IC50 against PI3Kβ. The class given is biochemical. An excerpt:
(§1) HTRF In vitro Profiling Assays for PI3K Inhibition
(§2) The PI3-Kinase profiling assays were developed to measure the compound-dependent inhibition of the alpha, beta, delta, and gamma isoforms of PI3Kin an in vitro catalytic assay. This assay was developed and optimized from a kit produced by Upstate (Millipore catalog #33-017). Briefly, this procedure utilizes a pre-formed HTRF (Homogeneous Time-Resolved Fluorescence energy transfer) complex between four binding partners: 1) biotinylated PIP3, 2) GST tagged pleckstrin homology (PH) domain, 3) Europium labeled anti-GST monoclonal antibody, and 4) Streptavidin-Allophycocyanin (APC). The native PIP3 produced by PI 3-Kinase activity displaces biotin-PIP3 from the PH domain, resulting in the dissociation of the HTRF complex and a decrease in the fluorescence signal. The format of this assay is the same for all 4 isoforms of PI3K; the differences lie in the concentration of enzyme used to achieve the most robust signal. The alpha and delta assays are run at […] enzyme and the gamma assay is run at 1 nM enzyme. In addition, the alpha, beta and delta assays are run with 150 mM NaCl while the gamma assay is run in the absence of NaCl. The ATP concentration is 100 uM in the alpha, beta, and delta assays and 15 uM ATP in the gamma assay. All reactions are run at 10 uM PIP2
Compounds are serially diluted (3-fold in 100% DMSO) across a 384-well polypropylene mother plate from column I to column 12 and column 13 to column 24, to yield 11 concentrations for each test compound. Columns 6 and 18 contain only DMSO. Once titrations are made, 0.05 μL is transferred to a 384-well low-volume assay plate (Greiner 784076). This assay plate contains three pharmacological controls (known PI3K inhibitors) and 3 assay controls: (1) Enzyme without inhibitor; (2) Buffer minus enzyme, and (3) Buffer minus enzyme plus native PIP3. DMSO is stamped into all wells of columns 6 and 18. PIP3 is added at 40 μM in 1× Reaction buffer (1 μL of 200 μM PIP3) to alternating rows of column 18 (wells 18 B, D, F, H, J, L, N, P). […]
For orientation: TR-FRET usually uses a lanthanide donor and a delayed reading to cut background.
For the molecule `Cc1c(Cl)cccc1Cn1cnc(=O)c2sc(N3CCOCC3)nc21` [Example 3, 4-[(3-chloro-2-methylphenyl)methyl]-2-(4-morpholinyl)[1,3]thiazolo[4,5-d]pyrimidin-7(4H)-one], the IC50 worked out at 400 nM. On the same count and under the same terms, with `O=c1ncn(Cc2ccccc2C(F)(F)F)c2nc(N3CCOCC3)sc12` [Example 1, 2-(4-morpholinyl)-4-{[2(trifluoromethyl)phenyl]methyl}[1,3]thiazolo[4,5-d]pyrimidin-7(4H)-one] the figure was 320 nM; with `Cc1c(Cn2c(C)nc(=O)c3sc(N4CCOCC4)nc32)cccc1C(F)(F)F` [Example 59, 5-methyl-4-{[2-methyl-3-(trifluoromethyl)phenyl]methyl}-2-(4-morpholinyl)[1,3]thiazolo[4,5-d]pyrimidin-7(4H)-one], 0.5 nM.

The target of the next assay is T2, PI3Kδ (Homo sapiens, UniProt O00329).
T2 construct: made in house
T2 sequence (O00329 whole entry): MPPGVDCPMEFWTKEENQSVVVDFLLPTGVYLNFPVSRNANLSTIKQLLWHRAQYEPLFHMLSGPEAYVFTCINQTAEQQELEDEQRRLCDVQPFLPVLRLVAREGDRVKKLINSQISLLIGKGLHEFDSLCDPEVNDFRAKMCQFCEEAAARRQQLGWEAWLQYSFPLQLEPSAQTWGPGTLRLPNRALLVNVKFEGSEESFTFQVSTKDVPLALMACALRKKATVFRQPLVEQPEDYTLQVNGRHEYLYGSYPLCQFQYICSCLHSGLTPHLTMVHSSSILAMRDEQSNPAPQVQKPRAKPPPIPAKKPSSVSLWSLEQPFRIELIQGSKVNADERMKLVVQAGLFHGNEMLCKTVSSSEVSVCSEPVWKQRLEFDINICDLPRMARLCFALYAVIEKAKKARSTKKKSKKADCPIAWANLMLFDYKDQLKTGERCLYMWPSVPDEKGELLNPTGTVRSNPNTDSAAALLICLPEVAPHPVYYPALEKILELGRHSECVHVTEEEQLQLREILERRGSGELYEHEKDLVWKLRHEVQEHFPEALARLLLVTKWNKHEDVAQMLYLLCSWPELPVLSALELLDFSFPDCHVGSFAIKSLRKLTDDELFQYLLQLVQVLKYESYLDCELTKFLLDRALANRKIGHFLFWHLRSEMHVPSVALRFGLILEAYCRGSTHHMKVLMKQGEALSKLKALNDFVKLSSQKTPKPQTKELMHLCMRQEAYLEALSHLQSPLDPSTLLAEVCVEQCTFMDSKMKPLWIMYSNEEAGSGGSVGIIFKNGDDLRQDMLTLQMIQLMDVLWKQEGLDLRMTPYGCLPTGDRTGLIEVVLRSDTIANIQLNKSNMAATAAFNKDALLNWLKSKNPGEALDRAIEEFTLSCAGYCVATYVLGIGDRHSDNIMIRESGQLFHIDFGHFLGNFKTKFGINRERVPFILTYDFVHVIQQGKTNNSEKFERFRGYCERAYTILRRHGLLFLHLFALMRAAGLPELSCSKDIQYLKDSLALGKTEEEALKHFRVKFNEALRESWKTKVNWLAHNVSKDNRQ
T2 sequence (P27986 2-724 partner limits assumed): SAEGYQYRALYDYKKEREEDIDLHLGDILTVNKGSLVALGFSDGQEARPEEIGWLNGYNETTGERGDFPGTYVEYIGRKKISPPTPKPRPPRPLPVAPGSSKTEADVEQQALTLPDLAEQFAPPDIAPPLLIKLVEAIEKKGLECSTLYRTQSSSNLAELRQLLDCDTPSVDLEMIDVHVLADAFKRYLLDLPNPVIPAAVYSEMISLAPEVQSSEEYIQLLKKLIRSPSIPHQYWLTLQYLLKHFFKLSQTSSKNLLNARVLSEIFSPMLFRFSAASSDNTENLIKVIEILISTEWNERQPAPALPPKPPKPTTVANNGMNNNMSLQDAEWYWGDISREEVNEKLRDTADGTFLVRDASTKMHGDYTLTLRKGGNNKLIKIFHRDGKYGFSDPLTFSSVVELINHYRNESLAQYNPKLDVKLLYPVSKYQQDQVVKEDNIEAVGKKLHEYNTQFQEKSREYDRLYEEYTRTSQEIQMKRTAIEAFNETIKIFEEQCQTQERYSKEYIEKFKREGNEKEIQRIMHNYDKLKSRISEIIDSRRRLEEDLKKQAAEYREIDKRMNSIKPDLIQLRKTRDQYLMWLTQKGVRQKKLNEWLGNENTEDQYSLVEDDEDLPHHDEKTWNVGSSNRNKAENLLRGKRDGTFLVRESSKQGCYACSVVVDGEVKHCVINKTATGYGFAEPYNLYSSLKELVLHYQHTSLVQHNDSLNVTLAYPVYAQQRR
Put plainly: HTRF in vitro profiling assay for PI3K inhibition, delta isoform. It is filed as biochemical. To be noted: in at least one experimental run; read-out: IC50 against PI3Kδ.
From the text: as §1, §2
Compounds are serially diluted (3-fold in 100% DMSO) across a 384-well polypropylene mother plate from column I to column 12 and column 13 to column 24, to yield 11 concentrations for each test compound. Columns 6 and 18 contain only DMSO. Once titrations are made, 0.05 μL is transferred to a 384-well low-volume assay plate (Greiner 784076). This assay plate contains three pharmacological controls (known PI3K inhibitors) and 3 assay controls: (1) Enzyme without inhibitor; (2) Buffer minus enzyme, and (3) Buffer minus enzyme plus native PIP3. DMSO is stamped into all wells of columns 6 and 18. PIP3 is added at 40 μM in 1× Reaction buffer (1 μL of 200 μM PIP3) to alternating rows of column 18 (wells 18 B, D, F, H, J, L, N, P). The no-enzyme control reactions are run in wells 18 A, C, E, G, I, K, M, O (0.1 μL of 100% DMSO).
The PI3-Kinase profiling assay was optimized using the HTRF kit provided by Upstate (Millipore). The assay kit contains seven reagents: 1) 4× Reaction Buffer; 2) native PIP2 (substrate); 3) Stop A (EDTA); 4) Stop B (Biotin-PIP3); 5) Detection Mix A (Streptavidin-APC); 6) Detection Mix B (Eu-labeled Anti-GST plus GST-tagged PH-domain); 7) Detection Mix C (KF). In addition, the following items were obtained or purchased: PI3Kinase (prepared by GSK BR&AD), dithiothreitol (Sigma, D-5545), Adenosine-5′-triphosphate (ATP, Teknova cat. #A0220), native PIP3 (1,2-dioctanoyl-sn-glycero-3-[phosphoinositil-3,4,5-triphosphate]tetraammonium salt (Avanti polar lipids, 850186P), DMSO (Sigma, 472301).
PI3Kinase Reaction Buffer is prepared by diluting the stock 1:4 with de-ionized water. Freshly prepared DTT is added at a final concentration of 5 mM on the day of use. Enzyme addition and compound pre-incubation are initiated by the addition of 2.5 μL of PI3K (at twice its final concentration) in 1× reaction buffer to all wells using a Multidrop Combi. Plates are incubated at room temperature for 15 minutes. Reactions are initiated by addition of 2.5 μL of 2× substrate solution (PIP2 and ATP in 1× reaction buffer) using a Multidrop Combi. Plates are incubated at room temperature for one hour. Reactions are quenched by the addition of 2.5 μL of stop solution (Stop A and Stop B pre-mixed at a ratio of 5:1, respectively) to all wells using the Multidrop Combi. […]
Turning to `N#Cc1cccc(Cn2cnc(=O)c3sc(N4CCOCC4)nc32)c1` [Example 20, 3-{[2-(4-morpholinyl)-7-oxo[1,3]thiazolo[4,5-d]pyrimidin-4(7H)-yl]methyl}benzonitrile], the IC50 was determined as 8 nM.

Staying with this assay, now noted: in at least one experimental run; read-out: pIC50 against PI3Kδ (converted).
On to `Cc1c(Cn2c(-c3ccccc3)nc(=O)c3sc(N4CCOCC4)nc32)cccc1C(F)(F)F` [Example 79, 4-{[2-methyl-3-(trifluoromethyl)phenyl]methyl}-2-(4-morpholinyl)-5-phenyl[1,3]thiazolo[4,5-d]pyrimidin-7(4H)-one], for which the IC50 was 50.1 nM.

For `Cc1c(Cl)cccc1Cn1c(C2CCCO2)nc(=O)c2sc(N3CCOCC3)nc21` (stereo not drawn) [Example 83, 4-[(3-chloro-2-methylphenyl)methyl]-2-(4-morpholinyl)-5-(tetrahydro-2-furanyl)[1,3]thiazolo[4,5-d]pyrimidin-7(4H)-one], the IC50 was 1.26 nM. Still for that read-out and setting: with `Cc1c(Cl)cccc1Cn1c(CN)nc(=O)c2sc(N3CCOCC3)nc21` [Example 111, 5-(aminomethyl)-4-[(3-chloro-2-methylphenyl)methyl]-2-(4-morpholinyl)[1.3]thiazolo[4,5-d]pyrimidin-7(4H)-one] the figure was 2.51 nM; with `CCc1nc(=O)c2sc(N3CCOCC3)nc2n1Cc1cccc(Cl)c1C` [Example 75, 4-[(3-chloro-2-methylphenyl)methyl]-5-ethyl-2-(4-morpholinyl)[1,3]thiazolo[4,5-d]pyrimidin-7(4H)-one], 0.158 nM. On the same count and under the same terms, with `Cc1c(Cl)cccc1Cn1c(CO)nc(=O)c2sc(N3CCOCC3)nc21` [Example 84, 4-[(3-chloro-2-methylphenyl)methyl]-5-(hydroxymethyl)-2-(4-morpholinyl)[1,3]thiazolo[4,5-d]pyrimidin-7(4H)-one] the figure was 0.126 nM.
